Test results: patent publication US8084456B2, “Pyrazine-based tubulin inhibitors” (YM Biosciences Australia Pty Ltd, priority 2002, dated 2011)

Key:
[1] = tested on: DU145 (Prostate Cancer) cells; assay: Cellular growth assay (MTT), DU145; type: cell-based; settings: Homo sapiens, DU-145, 40 hr incubation, read-out: DU145 (inhibition of 50% of cellular growth)
Procedure: (§1) K562 (Chronic Myeloid Leukemia), PC3 (Prostate Cancer), and DU145 (Prostate Cancer) were obtained from the American Type Culture Collection (ATCC). K562 was grown in RPMI, with 10% FBS with Glutamx added. DU145 cells were cultured in DMED, with 10% FBS and Glutamx and MEM non-essential amino acids added. PC3 cells were grown in F12K medium, with 10% FBS and Glutamx and MEM non-essential amino acids added. All cells were grown at 37° C. in 5% CO2.

TelJak2 = TelJak2 (Homo sapiens, UniProt O60674); assay: Cellular growth assay (MTT), BaF3 TEL/JAK2 cells; type: cell-based; settings: 40 hr incubation, read-out: TelJak2 (inhibition of 50% of cellular growth)
TelJak3 = TelJak3 (Homo sapiens, UniProt P52333); assay: Cellular growth assay (MTT), BaF3 TEL/JAK3 cells; type: cell-based; settings: 40 hr incubation, read-out: TelJak3 (inhibition of 50% of cellular growth)
[2] = tested on: K562 (Chronic Myeloid Leukemia) cells; assay: Cellular growth assay (MTT), K562; type: cell-based; settings: Homo sapiens, 40 hr incubation, read-out: K562 (inhibition of 50% of cellular growth)
Procedure: as §1

Tubulin = Tubulin assay (turbidometric microtubule assembly); type: biochemical; settings: at 50 μM, absorbance at 340 nm, 37° C.
Procedure: Turbidometric assays of microtubule assembly were performed by incubating microtubule protein in cuvettes at 37° C. in a thermostatically controlled spectrophotometer measuring the change in absorbance at 340 nm over time. The microtubule protein was incubated with the each test compound at 0° C. and polymerisation was initiated by addition of 1 mM GTP, prior to heating to 37° C.

[3] = tested on: PC3 (Prostate Cancer) cells; assay: Cellular growth assay (MTT), PC3; type: cell-based; settings: Homo sapiens, PC-3, 40 hr incubation, read-out: PC3 (inhibition of 50% of cellular growth)
Procedure: as §1

Sequence of TelJak2 (O60674 with tags, fused parts or gaps): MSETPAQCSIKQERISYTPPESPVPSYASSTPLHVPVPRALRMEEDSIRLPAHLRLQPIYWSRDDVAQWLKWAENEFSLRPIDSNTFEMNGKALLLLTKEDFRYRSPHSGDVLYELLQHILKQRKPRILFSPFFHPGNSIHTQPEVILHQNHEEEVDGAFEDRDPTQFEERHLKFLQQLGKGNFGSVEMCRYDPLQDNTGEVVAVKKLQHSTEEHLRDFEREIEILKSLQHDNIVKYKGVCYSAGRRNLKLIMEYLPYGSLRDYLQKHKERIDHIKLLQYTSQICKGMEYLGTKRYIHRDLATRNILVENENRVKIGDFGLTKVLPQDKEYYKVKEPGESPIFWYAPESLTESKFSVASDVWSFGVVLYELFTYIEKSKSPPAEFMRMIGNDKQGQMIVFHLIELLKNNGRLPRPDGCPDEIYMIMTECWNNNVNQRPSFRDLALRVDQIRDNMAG
Sequence of TelJak3 (P52333 with tags, fused parts or gaps): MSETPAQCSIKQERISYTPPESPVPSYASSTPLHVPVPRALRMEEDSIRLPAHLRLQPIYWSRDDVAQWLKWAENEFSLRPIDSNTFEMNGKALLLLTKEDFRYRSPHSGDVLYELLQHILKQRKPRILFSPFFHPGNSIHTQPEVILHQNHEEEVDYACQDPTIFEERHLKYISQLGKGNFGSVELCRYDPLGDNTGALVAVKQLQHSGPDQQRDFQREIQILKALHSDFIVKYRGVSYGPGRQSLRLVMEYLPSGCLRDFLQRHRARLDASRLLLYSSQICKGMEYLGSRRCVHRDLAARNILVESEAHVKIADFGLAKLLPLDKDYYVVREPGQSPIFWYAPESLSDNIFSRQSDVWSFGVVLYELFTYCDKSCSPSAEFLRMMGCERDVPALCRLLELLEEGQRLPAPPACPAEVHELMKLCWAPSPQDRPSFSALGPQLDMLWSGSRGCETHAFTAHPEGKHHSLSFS

Row | SMILES | IC50 [1] | IC50 (TelJak2) | IC50 (TelJak3) | IC50 [2] | Tubulin (inhibition of tubulin polymerisation) (Tubulin) | IC50 [3]
1 | CCCC(Nc1cncc(-c2ccc(O)c(OC)c2)n1)c1cc(F)cc(F)c1 (stereo not drawn) | > 20 µM | ≤ 20 µM | ≤ 20 µM | ≤ 20 µM | + (inhibited tubulin polymerisation by greater than 50% at 50 μM) | > 20 µM
2 | CCCC(Nc1cncc(-c2ccc(NC(C)=O)c(OC)c2)n1)c1ccc(F)cc1 (stereo not drawn) | ≤ 20 µM | ≤ 20 µM | ≤ 20 µM | ≤ 20 µM | + (inhibited tubulin polymerisation by greater than 50% at 50 μM) | ≤ 20 µM
3 | CCCC(Nc1cncc(-c2cc(C)c(O)c(C)c2)n1)c1ccc(F)cc1 (stereo not drawn) | ≤ 20 µM | ≤ 20 µM | ≤ 20 µM | ≤ 20 µM | + (inhibited tubulin polymerisation by greater than 50% at 50 μM) | ≤ 20 µM
4 | CCCC(Nc1cncc(-c2ccc(O)c(OC)c2)n1)c1cccc(O)c1 (stereo not drawn) | > 20 µM | ≤ 20 µM | ≤ 20 µM | ≤ 20 µM | + (inhibited tubulin polymerisation by greater than 50% at 50 μM) | > 20 µM
5 | COCCC(Nc1cncc(-c2ccc(O)c(OC)c2)n1)c1ccccc1 (stereo not drawn) | ≤ 20 µM | ≤ 20 µM | ≤ 20 µM | ≤ 20 µM | + (inhibited tubulin polymerisation by greater than 50% at 50 μM) | ≤ 20 µM
6 | CCCC(Nc1cncc(-c2ccc(O)c(OC)c2)n1)c1ccc(F)cc1 (stereo not drawn) | ≤ 20 µM | ≤ 20 µM | ≤ 20 µM | ≤ 20 µM | + (inhibited tubulin polymerisation by greater than 50% at 50 μM) | > 20 µM
7 | CCCC(Nc1cncc(-c2ccc(O)c(OC)c2)n1)c1cc(OC)cc(OC)c1 (stereo not drawn) | ≤ 20 µM | ≤ 20 µM | ≤ 20 µM | ≤ 20 µM | + (inhibited tubulin polymerisation by greater than 50% at 50 μM) | ≤ 20 µM
8 | CCCC(Nc1cncc(-c2ccc(O)c(OC)c2)n1)c1ccc(OC)nc1 (stereo not drawn) | ≤ 20 µM | ≤ 20 µM | ≤ 20 µM | ≤ 20 µM | + (inhibited tubulin polymerisation by greater than 50% at 50 μM) | > 20 µM
9 | CCCC(Nc1cncc(-c2cc(C)c(OCCN(CC)CC)c(C)c2)n1)c1ccc(F)cc1 (stereo not drawn) | ≤ 20 µM | ≤ 20 µM | ≤ 20 µM | ≤ 20 µM | + (inhibited tubulin polymerisation by greater than 50% at 50 μM) | ≤ 20 µM
10 | CCCC(Nc1cncc(-c2ccc(O)c(OC)c2)n1)c1cccc(Cl)c1 (stereo not drawn) | ≤ 20 µM | ≤ 20 µM | ≤ 20 µM | ≤ 20 µM | + (inhibited tubulin polymerisation by greater than 50% at 50 μM) | ≤ 20 µM
11 | CCCC(Nc1cncc(-c2ccc(O)c(OC)c2)n1)c1ccc(OC)cc1 (stereo not drawn) | ≤ 20 µM | ≤ 20 µM | ≤ 20 µM | ≤ 20 µM | + (inhibited tubulin polymerisation by greater than 50% at 50 μM) | ≤ 20 µM
12 | CCCC(Nc1cncc(-c2ccc(N)c(OC)c2)n1)c1cccnc1 (stereo not drawn) | ≤ 20 µM | ≤ 20 µM | ≤ 20 µM | ≤ 20 µM | + (inhibited tubulin polymerisation by greater than 50% at 50 μM) | ≤ 20 µM
13 | CCCC(Nc1cncc(-c2ccc(O)c(OC)c2)n1)c1ccccc1 (stereo not drawn) | ≤ 20 µM | ≤ 20 µM | ≤ 20 µM | ≤ 20 µM | + (inhibited tubulin polymerisation by greater than 50% at 50 μM) | ≤ 20 µM
14 | CCCC(Nc1nc(-c2ccc(O)c(OC)c2)cnc1C)c1ccccc1 (stereo not drawn) | ≤ 20 µM | ≤ 20 µM | ≤ 20 µM | ≤ 20 µM | + (inhibited tubulin polymerisation by greater than 50% at 50 μM) | ≤ 20 µM
15 | CCCC(Nc1cncc(-c2ccc(O)c(OC)c2)n1)c1cccc(C)c1 (stereo not drawn) | ≤ 20 µM | ≤ 20 µM | ≤ 20 µM | ≤ 20 µM | + (inhibited tubulin polymerisation by greater than 50% at 50 μM) | ≤ 20 µM
